Measured values taken from ChEMBL document CHEMBL1128013, “The synthesis and biological activity of tetrahydroquinoline angiotensin II antagonists containing a substituted biphenyltetrazole group” (Bioorg Med Chem Lett, 1994).

Assays:
Rattus norvegicus = experiment: Tested in vivo for inhibition of pressor response induced by infusion of AII in conscious normotensive rats, when given intravenously; format: functional, organism-based
[1] = target: T1, Type-1 angiotensin II receptor (Cavia porcellus, UniProt Q9WV26); experiment: Compound was tested for in vitro inhibition of specific binding of [I-125]AII to AT1 receptor in guinea pig adrenal membrane preparation; format: cell membranes
T1 sequence (Q9WV26 whole entry): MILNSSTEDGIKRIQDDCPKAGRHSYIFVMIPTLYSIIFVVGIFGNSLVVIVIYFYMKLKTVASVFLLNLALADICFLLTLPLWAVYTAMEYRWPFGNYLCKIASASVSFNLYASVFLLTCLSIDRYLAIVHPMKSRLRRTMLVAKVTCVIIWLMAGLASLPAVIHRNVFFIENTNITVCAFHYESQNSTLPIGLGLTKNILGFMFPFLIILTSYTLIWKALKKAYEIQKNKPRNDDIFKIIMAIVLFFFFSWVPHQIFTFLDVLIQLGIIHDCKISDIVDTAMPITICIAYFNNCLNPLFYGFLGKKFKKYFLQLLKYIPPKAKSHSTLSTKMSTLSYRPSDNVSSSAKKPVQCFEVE

[2] = target: T1, Type-1 angiotensin II receptor; experiment: Compound was tested for in vitro inhibition of specific binding of [I-125]AII to Angiotensin II receptor, type 1 in guinea pig adrenal membrane preparation; format: cell membranes

Row | SMILES | EC50 (Rattus norvegicus) | IC50 [1] | IC50 [2]
1 | CCc1cc(OCc2ccc(-c3ccc(Cl)cc3-c3nnn[nH]3)cc2)c2c(n1)CCCC2 | – | – | 93 nM
2 | CCc1cc(OCc2ccc(-c3c(C)cccc3-c3nn[nH]n3)cc2)c2c(n1)CCCC2 | 0.48 mg/kg | – | 29 nM
3 | CCc1cc(OCc2ccc(-c3ccc(OC)cc3-c3nnn[nH]3)cc2)c2c(n1)CCCC2 | – | – | 140 nM
4 | CCc1cc(OCc2ccc(-c3ccc(C)cc3-c3nn[nH]n3)cc2)c2c(n1)CCCC2 | – | – | 54 nM
5 | CCCCc1nc(Cl)c(CO)n1Cc1ccc(-c2ccccc2-c2nnn[nH]2)cc1 [LOSARTAN] | 0.65 mg/kg | – | –

Results, then the compound that gave them:

Row | EC50 (Rattus norvegicus) | IC50 [1] | IC50 [2] | SMILES
6 | 0.52 mg/kg | 7 nM | – | CCc1cc(OCc2ccc(-c3ccccc3-c3nn[nH]n3)c(Cl)c2)c2c(n1)CCCC2
7 | 0.22 mg/kg | – | 9 nM | CCc1cc(OCc2ccc(-c3ccccc3-c3nn[nH]n3)cc2F)c2c(n1)CCCC2
8 | 0.39 mg/kg | – | 5 nM | CCc1cc(OCc2ccc(-c3ccccc3-c3nn[nH]n3)cc2)c2c(n1)CCCC2
9 | – | – | 67 nM | CCc1cc(OCc2ccc(-c3cc(OC)ccc3-c3nn[nH]n3)cc2)c2c(n1)CCCC2
10 | 0.11 mg/kg | 20 nM | – | CCc1cc(OCc2ccc(-c3ccccc3-c3nn[nH]n3)c(C(=O)OC)c2)c2c(n1)CCCC2
11 | 0.39 mg/kg | 8 nM | – | CCc1cc(OCc2ccc(-c3ccccc3-c3nn[nH]n3)c(OC)c2)c2c(n1)CCCC2
12 | 0.1 mg/kg | 6 nM | – | CCc1cc(OCc2ccc(-c3ccccc3-c3nn[nH]n3)c(C(C)=O)c2)c2c(n1)CCCC2
13 | 0.24 mg/kg | 27 nM | – | CCc1cc(OCc2ccc(-c3ccccc3-c3nn[nH]n3)c(C(=O)O)c2)c2c(n1)CCCC2
